According to US10351596B2, “γ-AA-peptide STAT3/DNA inhibitors and methods of use” (H. Lee Moffitt Cancer Center and Research Institute, Inc., priority 2014, dated 2019):

System: STAT3 phosphorylation and STAT3 regulated genes (survivin, cyclin D1)
Assay: Western immunoblotting of MDA-MB-468 cells (P-STAT3, survivin, cyclin D1)
Type: cell-based, human
Conditions: 100 μM overnight, Western blot
Protocol: To assess the ability of lead γ-AA peptides to modulate the expression of STAT3 regulated genes, Western immunoblotting was carried out to determine the effect of γ-AA peptides on the expression levels of survivin and cyclin D1. Briefly, Western blots were prepared using cells that were harvested and lysed for 30 min on ice with occasional vortexing in 150 mM Hepes, pH 7.5, 150 mM NaCl, 1 mM EDTA, 0.5% NP-40, 10% glycerol, 5 mM NaF, 1 mM DTT, 1 mM PMSF, 2 mM Na3VO4, and 5 μg/ml leupeptin. Proteins readings were done using the Bradford protein assay, and equal amounts of protein for each sample were loaded into the wells of SDS-PAGE gels. After separation, proteins were transferred to nitrocellulose and Western blots were performed as previously described (Zhang, et al., A Novel Inhibitor of STAT3 Homodimerization Selectively Suppresses STAT3 Activity and Malignant Transformation. Cancer Research 2013, 73, 1922-1933).

Q: How did the “STAT3 phosphorylation (P-STAT3)” value turn out when S3I-1757 was run?
A: blocked STAT3 phosphorylation
